Laboratory results taken from publication PMC9377253, “Antiproliferative and cytotoxic effects of sesquiterpene lactones isolated from Ambrosia artemisiifolia on human adenocarcinoma and normal cell lines” (Pharmaceutical Biology, 2022).

Assays:
[1] = system: multidrug-resistant Colo 320 colonic adenocarcinoma cells; experiment: MTT cytotoxicity assay (24 h), Colo 320; type: cell-based; conditions: Homo sapiens, COLO 320, 24 h, 24 h incubation, read-out: Cytotoxicity IC50, Colo320
Procedure: (§1) Human colonic adenocarcinoma cell lines (Colo 205 doxorubicin-sensitive and Colo 320/MDR-LRP multidrug-resistant expressing ABCB1 (MDR1)-LRP), ATCC-CCL-220.1 (Colo 320) and CCL-222 (Colo 205) were purchased from LGC Promochem, Teddington, UK. The cells were cultured in RPMI 1640 medium supplemented with 10% heat-inactivated foetal bovine serum, 2 mM L-glutamine, 1 mM Na-pyruvate and 100 mM Hepes. The cell lines were incubated at 37 °C, in a 5% CO2, 95% air atmosphere. The semi-adherent human colon cancer cells were detached with Trypsin-Versene (EDTA) solution for 5 min at 37 °C.
(§2) MRC-5 non-cancerous human embryonic lung fibroblast and human colonic adenocarcinoma cell lines (doxorubicin-sensitive Colo 205 and multidrug-resistant Colo 320 colonic adenocarcinoma cells) were used to determine the effect of compounds on cell proliferation and growth. The effects of increasing concentrations of compounds on cell proliferation and growth were tested in 96-well flat-bottomed microtitre plates. The compounds were diluted in a volume of 100 μL of medium.
(§3) In case of the colonic adenocarcinoma cells, the 2-fold serial dilutions of compounds were prepared in 100 μL of RPMI 1640, horizontally. The semi-adherent colonic adenocarcinoma cells were treated with Trypsin-Versene (EDTA) solution. The density of the cells was adjusted to 6 × 10^3 cells (antiproliferative assay) or 1 × 10^4 cells (cytotoxicity assay) in 100 μL of RPMI 1640 medium, and was added to each well, with the exception of the medium control wells. The final volume of the wells containing compounds and cells was 200 μL.
(§4) The culture plates were incubated at 37 °C for 72 h (antiproliferative test) or 24 h (cytotoxicity test); at the end of the incubation period, 20 μL of MTT (thiazolyl blue tetrazolium bromide, Sigma, St. Louis, MO, USA) solution (from a stock solution of 5 mg/mL) were added to each well. After incubation at 37 °C for 4 h, 100 μL of sodium dodecyl sulphate (SDS) (Sigma) solution (10% in 0.01 M HCI) were added to each well and the plates were further incubated at 37 °C overnight. Cell growth was determined by measuring the optical density (OD) at 540/630 nm with Multiscan EX ELISA reader (Thermo Labsystems, Cheshire, WA, USA). Inhibition of the cell growth was determined according to the formula below: Inhibition %=100−[OD sample−OD medium control/OD cell control−OD medium control]×100
(§5) Results are expressed in terms of IC50, defined as the inhibitory dose that reduces the growth of the cells exposed to the tested compounds by 50%.

[2] = system: doxorubicin-sensitive Colo 205 colonic adenocarcinoma cells; experiment: MTT cytotoxicity assay (24 h), Colo 205; type: cell-based, human; conditions: Homo sapiens, COLO 205; MTT, 24 h incubation; read-out: Cytotoxicity IC50, Colo205
Procedure: as §1, §2, §3, §4, §5

[3] = MTT cytotoxicity assay (24 h), MRC-5; type: cell-based; conditions: human, MRC-5 embryonal lung fibroblast cells, 24 h incubation
Procedure: (§6) MRC-5 human embryonal lung fibroblast cell lines (ATCC CCL-171) were purchased from LGC Promochem, Teddington, UK. The cell line was cultured in Eagle’s Minimal Essential Medium (EMEM, containing 4.5 g/L glucose) supplemented with a non-essential amino acid mixture, a selection of vitamins and 10% heat-inactivated foetal bovine serum. The cell lines were incubated at 37 °C, in a 5% CO2, 95% air atmosphere.
as §2
(§7) The adherent human embryonal lung fibroblast cells were seeded overnight and cultured in 96-well flat-bottomed microtitre plates prior to the assay, using EMEM supplemented with 10% heat-inactivated foetal bovine serum. The density of the cells was adjusted to 6 × 10^3 cells (antiproliferative assay) or 1 × 10^4 cells (cytotoxicity assay) in 100 μL per well, the cells were seeded for 24 h at 37 °C, 5% CO2, then the medium was removed from the plates containing the cells, and the dilutions of compounds (200 µL) previously made in a separate plate were added to the cells in.
as §4, §5

[4] = system: MRC-5 human embryonal lung fibroblast cell line; experiment: MTT antiproliferative assay (72 h), MRC-5; type: cell-based
Procedure: as §6, §2, §7, §4, §5

[5] = system: multidrug-resistant Colo 320 colonic adenocarcinoma cells expressing the ABCB1 transporter; experiment: Checkerboard combination assay with doxorubicin; type: cell-based, human; conditions: for drug interaction with doxorubicin: Colo320, at certain concentrations
Procedure: A checkerboard microplate method was applied to study the effect of drug interactions between the compounds and doxorubicin. The assay was carried out using multidrug-resistant Colo 320 colonic adenocarcinoma cells expressing the ABCB1 transporter. The final concentration of the chemotherapeutic agent doxorubicin used in the combination experiment was chosen in accordance with their antiproliferative activity previously determined. The dilutions of the chemotherapeutic drug were made in a horizontal direction in 100 μL, and the dilutions of the compounds vertically in the microtitre plate in 50 μL volume. The cells were re-suspended in culture medium and distributed into each well in 50 μL containing 6 × 10^3 cells each. The plates were incubated for 72 h at 37 °C in 5% CO2 atmosphere. The cell growth rate was determined after MTT staining. At the end of the incubation period, 20 μL of MTT (thiazolyl blue tetrazolium bromide, Sigma) solution (from a stock solution of 5 mg/mL) was added to each well. After incubation at 37 °C for 4 h, 100 μL of SDS (Sigma-Aldrich, St. Louis, MO, USA) solution (10% in 0.01 M HCl; Merck, Darmstadt, Germany) were added to each well and the plates were further incubated at 37 °C overnight. OD was measured at 540/630 nm with Multiscan EX ELISA reader (Thermo Labsystems, Cheshire, WA). Combination index (CI) values at 50% of the growth inhibition dose (ED50), were determined using CompuSyn software (ComboSyn, Inc., Paramus, NJ) to plot four to five data points to each ratio.

[6] = system: multidrug-resistant Colo 320 colonic adenocarcinoma cells; experiment: MTT antiproliferative assay (72 h), Colo 320; type: cell-based, human; conditions: for IC50: MTT, 72 h incubation, read-out: Antiproliferative IC50, Colo320; for selectivity index (SI), antiproliferative: Colo320 versus MRC-5, cell proliferation inhibition
Procedure: as §1, §2, §3, §4, §5

[7] = system: doxorubicin-sensitive Colo 205 colonic adenocarcinoma cells; experiment: MTT antiproliferative assay (72 h), Colo 205; type: cell-based, human; conditions: read-out: Antiproliferative IC50, Colo205
Procedure: as §1, §2, §3, §4, §5

MCF-7 mp53 cells = system: MCF-7 mp53 cells; parameters: method as in Sturgeon et al. [2005]; conditions: ref Sturgeon et al. [2005]; cited from earlier work
NF-κB = system: NF-κB; parameters: method as in Sotillo et al. [2017]; conditions: ref Sotillo et al. [2017]; cited from earlier work
[8] = system: breast cancer cell lines (MCF-7, JIMT-1 and HCC1937); parameters: method as in Sotillo et al. [2017]; conditions: ref Sotillo et al. [2017]; cited from earlier work
[9] = Homo sapiens, MRC5, 72 h incubation
[10] = Homo sapiens, COLO 205, 72 h incubation

Row | SMILES | IC50 [1] | IC50 [2] | IC50 at 24 h [3] | IC50 [4, 9] | IC50 ([6]; Homo sapiens, COLO 320, 72 h) | IC50 [7, 10] | IC50 [6] | TNF-α-induced translocation of NF-κB (NF-κB) | cytotoxicity to breast cancer cell lines [8] | also measured
1 | C=C1C(=O)O[C@@H]2C[C@H](C)[C@]3(O)CCC(=O)[C@@]3(C)C[C@H]12 [Compound 3, peruvin] | 82.4 ± 1.17 µM | 64.4 ± 1.78 µM | 11.9 ± 1.45 µM | 26.4 ± 1.3 µM | 21.2 ± 0.72 µM | 26.4 ± 1.12 µM |  |  |  | Type of interaction ([5]; starting concentration 65 µM, ratio 7.54:1): Moderate antagonism; Type of interaction ([5]; starting concentration 65 µM, ratio 15.08:1): Antagonism; Type of interaction ([5]; starting concentration 65 µM, ratio 30.16:1): Antagonism; Type of interaction ([5]; starting concentration 65 µM, ratio 60.32.1): Moderate antagonism; Type of interaction ([5]; starting concentration 65 µM, ratio 120.64:1): Antagonism; Type of interaction ([5]; starting concentration 65 µM, ratio 241.28:1): Additive effect
2 | C=C1C(=O)O[C@@H]2[C@H]1CC[C@H](C)[C@]1(CCC(=O)O1)[C@@]2(C)O [Compound 4, psilostachyin] |  | 42.4 ± 2.37 µM | 41.8 ± 2.43 µM | 26.7 ± 0.51 µM | 5.29 µM | 14.4 ± 1 µM | 8.78 ± 0.22 µM |  |  | effect on mitosis of MCF-7 mp53 cells (G2 checkpoint inhibitors) (MCF-7 mp53 cells): blocked MCF-7 mp53 cells in mitosis; Type of interaction ([5]; starting concentration 25 µM, ratio 2.9:1): Additive effect; Type of interaction ([5]; starting concentration 25 µM, ratio 5.8:1): Moderate antagonism; Type of interaction ([5]; starting concentration 25 µM, ratio 11.6:1): Synergism; Type of interaction ([5]; starting concentration 25 µM, ratio 23.2:1): Antagonism; Type of interaction ([5]; starting concentration 25 µM, ratio 46.4:1): Moderate antagonism; Type of interaction ([5]; starting concentration 25 µM, ratio 92.2:1): Slight antagonism; selectivity index (SI), antiproliferative [6]: 3.04
3 | C=C1C(=O)O[C@@H]2[C@H]1CC[C@H](C)[C@H](CCC(=O)OC)[C@@]2(C)O [Compound 7, 1,10-dihydro-1′-noraltamisin] | 86.6 ± 1.06 µM | 53.6 ± 0.87 µM | > 100 µM | 39.8 ± 0.53 µM | 34.5 ± 2.07 µM | 17 ± 1.99 µM |  |  |  | drug interaction with doxorubicin [5]: synergistic effects; Type of interaction ([5]; starting concentration 150 µM, ratio 17.42:1): Very strong syn.; Type of interaction ([5]; starting concentration 150 µM, ratio 34.84:1): Moderate syn.; Type of interaction ([5]; starting concentration 150 µM, ratio 69.68:1): Moderate syn.; Type of interaction ([5]; starting concentration 150 µM, ratio 139.36:1): Moderate syn.; Type of interaction ([5]; starting concentration 150 µM, ratio 278.72:1): Moderate syn.; Type of interaction ([5]; starting concentration 150 µM, ratio 557.44:1): Syn.
4 | C=C1C(=O)O[C@@H]2[C@H]1CC[C@H](C)[C@]1(O)CCC(=O)[C@@]21C [coronopilin] |  |  |  |  |  |  |  | inhibited | cytotoxic | 
5 | C=C1C(=O)O[C@@H]2[C@H]1CCC(C)=C(CCC(=O)OC)[C@@]2(C)O [Compound 5, 1′-noraltamisin] | > 100 µM | > 100 µM | > 100 µM | > 100 µM |  | > 100 µM | > 100 µM |  |  | Type of interaction ([5]; starting concentration 30 µM, ratio 3.48:1): Antagonism; Type of interaction ([5]; starting concentration 30 µM, ratio 6.69:1): Additive effect; Type of interaction ([5]; starting concentration 30 µM, ratio 13.92:1): Slight synergism; Type of interaction ([5]; starting concentration 30 µM, ratio 27.84:1): Additive effect; Type of interaction ([5]; starting concentration 30 µM, ratio 55.68:1): Moderate antagonism; Type of interaction ([5]; starting concentration 30 µM, ratio 111.36:1): Additive effect; IC50 ([6]; listed as 1′-Noraltamisin): 8.78 µM
6 | COc1cccc2c1C(=O)c1c(O)c3c(c(O)c1C2=O)C[C@@](O)(C(=O)CO)C[C@@H]3O[C@H]1C[C@H](N)[C@H](O)[C@H](C)O1 [Doxorubicin, doxorubicin, reference compound] |  |  |  | 0.53 ± 0.06 µM | 0.14 ± 0.03 µM | 0.24 ± 0.03 µM |  |  |  | 
7 | COc1c(O)cc2oc(-c3ccc(O)c(O)c3)c(OC)c(=O)c2c1O [Compound 8, axillarin] | > 100 µM | > 100 µM | > 100 µM | 4.03 ± 0.56 µM | 50.4 ± 2.98 µM | 66.8 ± 0.96 µM |  |  |  | drug interaction with doxorubicin [5]: synergistic effects
8 | C=C1C(=O)O[C@@H]2[C@H]1CCC(C)=C1CCC(=O)O[C@]12C [Compound 6, psilostachyin B] |  |  |  |  |  |  | 5.29 ± 0.15 µM |  |  | IC50 ([4]; 72 h incubation): 26.4 ± 0.81 µM; Type of interaction ([5]; starting concentration 100 µM, ratio 11.6:1): Syn.; Type of interaction ([5]; starting concentration 100 µM, ratio 23.2:1): Syn.; Type of interaction ([5]; starting concentration 100 µM, ratio 46.4:1): Antagonism; Type of interaction ([5]; starting concentration 100 µM, ratio 92.8:1): Slight antagonism; Type of interaction ([5]; starting concentration 100 µM, ratio 185.6:1): Moderate ant.; Type of interaction ([5]; starting concentration 100 µM, ratio 371.2:1): Antagonism; selectivity index (SI), antiproliferative [6]: 4.98; IC50 ([7]; 72 h incubation): 11 ± 0.56 µM
9 | C=C1C(=O)O[C@@H]2[C@H]1CC[C@H](C)[C@@H]1CCC(=O)[C@@]21C [damsin] |  |  |  |  |  |  |  | inhibited | cytotoxic | 
10 | C=C1C(=O)O[C@@H]2[C@H]1CC[C@H](C)[C@@H]1C=CC(=O)[C@@]21C [ambrosin] |  |  |  |  |  |  |  | inhibited | cytotoxic | 
